Square brackets hold non-standard residues; d marks the D form. Peptide text beside a SMILES is read from it. ξ: configuration not given here. Ile(3ξ) = CCC(C)[C@H](N)C(=O)O; Thr(3ξ) = CC(O)[C@H](N)C(=O)O; Nle = CCCC[C@H](N)C(=O)O
System: patients with SBS-IF
Assay: Phase 2 placebo-controlled crossover trial in SBS-IF patients (Example 5): urine output, urine sodium, PS volume, oral fluid intake, hydration parameters, plasma L-citrulline, body composition
Assay type: in vivo, human
Conditions: for Fluid composite effect (increase urine production + reduction PS volume + reduction oral fluid intake): post-hoc
Protocol: The following non-limiting example describes results from a Phase 2 clinical trial in which subjects with SBS-IF were treated with the apraglutide formulations of the present disclosure. This Phase 2 trial investigated the safety and efficacy of 5 and 10 mg apraglutide in patients with SBS-IF.
Eight adult patients with SBS-IF were treated with apraglutide compositions of the present disclosure according to Table 6. Briefly, patients with SBS-IF were administered 5 mg apraglutide of the present disclosure or placebo once a week for four weeks. The patients were then administered 10 mg apraglutide of the present disclosure once a week for four weeks. Additionally, there was a washout period of 6-10 weeks between treatments.
The trial described in Example 5 was a double-blind, crossover, randomized, placebo-controlled, phase 2 trial followed by an additional treatment period in an open-label regimen. Eight adult patients (aged ≥18 to ≤80 years) with SBS-IF were enrolled in the trial. Patient eligibility was assessed during a screening visit. The main inclusion criteria were: Patients with SBS secondary to surgical resection of the small bowel with a jejuno- or ileostomy, at least 6 months since last bowel resection, a fecal output of at least 1500 g/day as recorded within the last 18 months, and PS-infusions≥3 times per week for ≥12 months according to the patient's medical record. Patients were excluded, if they had clinical signs of activity in inflammatory bowel disease, a history of cancer within ≤5 years or an inadequate hepatic, kidney, or heart function. Patients were also excluded, if they had received native GLP-2 or a GLP-2 analogue within the last 3 months.
The procedures during each treatment period were consistent.
Efficacy assessments were performed for each treatment period of 29 days. Patients received a paper diary for recording PS volume administration, urine collections and oral fluid intakes at specific time points. Patients performed home 48-hour urine collections at baseline (day −2 to 1), immediately after first treatment injection (day 1 to 3), and at the end of the treatment period (day 27-29, […] after the fourth administration of the trial drug). Urine was collected by the patient in a urine container with volume markings and 48-hour urine volumes were reported in the diary. After completing the 48-hour collection, patients transferred approximately 100 mL of urine from the container to a sample which was delivered at the next patient visit. The amount of sodium excreted per 48 hours was then calculated as the concentration of sodium in the sample multiplied by the total volume of urine collected. During each urine collection, weekly PS volume and content and daily oral fluid intake were kept constant. Since they were kept constant, increases in urine volume were a sign of increased fluid absorption. […] Patients were to adhere to their drinking menu during each urine collection and the concomitant 48-hour oral fluid intake was reported in the diary during each urine collection.
On day 20-22, patients were informed to record their spontaneous oral fluid intake during 48 hours. This measurement was included to investigate whether increased intestinal absorption was associated with a decrease in their spontaneous oral fluid intake.
Between day 4 and 24, PS volume reductions were allowed if deemed clinically necessary by the investigator. […] PS volume reductions were assessed during day 20-22. Patients returned to their baseline PS volume and content during the end of the treatment urine collection (day 27-29). Concomitant medications including proton-pump inhibitors, loperamide, and opiates were kept unchanged and stable throughout the trial. If necessary, adjustments could be made in the drinking menu and prescribed PS volume and content between treatment periods based on discussions between the patient and the investigator.
Body weight was measured using a levelled platform scale. […]

[1] = 5 mg vs placebo, Part A+B, end of treatment
[2] = 5 mg vs placebo, Part A, day 1-3 after first injection
[3] = 5 mg vs placebo, Part A, day 20-22
[4] = 5 mg vs placebo, Part A, day 27-29
[5] = 5 mg vs placebo, Part A, end of treatment
[6] = 10 mg vs placebo, Part A+B, day 1-3 after first injection
[7] = 10 mg vs placebo, Part A+B, day 20-22
[8] = 10 mg vs placebo, Part A+B, day 27-29
[9] = 10 mg vs placebo, Part A+B, end of treatment

SMILES: CCCC[C@H](NC(=O)[C@H](CCC(=O)O)NC(=O)[C@H](CC(=O)O)NC(=O)[C@H](CO)NC(=O)[C@H](Cc1ccccc1)NC(=O)[C@H](CO)NC(=O)CNC(=O)[C@H](CC(=O)O)NC(=O)CNC(=O)[C@@H](N)Cc1c[nH]cn1)C(=O)N[C@H](Cc1ccccc1)C(=O)N[C@H](C(=O)N[C@H](C(=O)N[C@@H](CC(C)C)C(=O)N[C@@H](CC(=O)O)C(=O)N[C@@H](CC(C)C)C(=O)N[C@@H](CC(C)C)C(=O)N[C@@H](C)C(=O)N[C@@H](C)C(=O)N[C@@H](CCCNC(=N)N)C(=O)N[C@@H](CC(=O)O)C(=O)N[C@@H](Cc1ccccc1)C(=O)N[C@H](C(=O)N[C@@H](CC(N)=O)C(=O)N[C@@H](Cc1c[nH]c2ccccc12)C(=O)N[C@@H](CC(C)C)C(=O)N[C@H](C(=O)N[C@@H](CCC(N)=O)C(=O)N[C@H](C(=O)N[C@@H](CCCCN)C(=O)N[C@H](C(=O)N[C@H](C(=O)N[C@@H](CC(=O)O)C(N)=O)C(C)O)C(C)CC)C(C)O)C(C)CC)C(C)CC)C(C)CC)C(C)O (stereo partly drawn) [apraglutide, L-histidyl-glycyl-L-aspartyl-glycyl-L-seryl-L-phenylalanyl-L-seryl-L-aspartyl-L-glutamyl-L-norleucyl-D-phenylalanyl-L-threonyl-Lisoleucyl-L-leucyl-L-aspartyl-L-leucyl-L-leucyl-L-alanyl-L-alanyl-L-arginyl-L-aspartyl-L-phenylalanyl-L-isoleucyl-L-asparaginyl-Ltryptophanyl-L-leucyl-L-isoleucyl-L-glutaminyl-L-threonyl-L-lysyl-L-isoleucyl-L-threonyl-Laspartic acid amide] (H-HGDGSFSDE[Nle][dF][Thr(3ξ)][Ile(3ξ)]LDLLAARDF[Ile(3ξ)]NWL[Ile(3ξ)]Q[Thr(3ξ)]K[Ile(3ξ)][Thr(3ξ)]D-NH2)
- Relative body weight, adjusted mean change from baseline [1]: 3 (0 to 6); %
- Relative bone mineral content, adjusted mean change from baseline [1]: 0 (−3 to 3); %
- Relative fat body mass, adjusted mean change from baseline [1]: 10 (1 to 18); %
- Relative lean body mass, adjusted mean change from baseline [1]: 2 (−5 to 9); %
- Relative plasma L-citrulline, adjusted mean change from baseline [1]: 65 (15 to 115); %
- Urea, adjusted mean change from baseline [1]: −0.9 (−2.4 to 0.6); mmol/L
- Absolute urine output, adjusted mean change from baseline [2]: −48 (−696 to 601); mL/day
- Relative urine output, adjusted mean change from baseline [2]: 5 (−38 to 48); %
- Urine sodium excretion (%), adjusted mean change from baseline [2]: 64 (−306 to 433); %
- Urine sodium excretion, adjusted mean change from baseline [2]: 3 (−146 to 152); mmol/day
- PS volume, adjusted mean change from baseline [3]: −94 (−344 to 156); P = .356 mL/day
- Relative PS volume, adjusted mean change from baseline [3]: −13 (−41 to 15); P = .276%
- Relative oral fluid intake, adjusted mean change from baseline [3]: −9 (−18 to 1); P = .068%
- Absolute urine output, adjusted mean change from baseline [4]: 714 mL/day
- Relative urine output, adjusted mean change from baseline [4]: 49%
- Urine sodium excretion (%), adjusted mean change from baseline [4]: 189 (−350 to 729); P = .270%
- Urine sodium excretion, adjusted mean change from baseline [4]: 66 (−69 to 201); P = .171 mmol/day
- Body weight, adjusted mean change from baseline [5]: 1.9 (−0.8 to 4.5); kg
- Bone mineral content, adjusted mean change from baseline [5]: −4 (−132 to 123); g
- Fat body mass, adjusted mean change from baseline [5]: 1.74 (−0.36 to 3.83); kg
- Lean body mass, adjusted mean change from baseline [5]: 0.49 (−4.65 to 5.64); kg
- Plasma L-citrulline, adjusted mean change from baseline [5]: 17.7 (−6.3 to 41.7); μmol/L
- Relative body weight, adjusted mean change from baseline [5]: 3 (−1 to 7); %
- Relative bone mineral content, adjusted mean change from baseline [5]: 0 (−6 to 6); %
- Relative fat body mass, adjusted mean change from baseline [5]: 9 (−5 to 24); %
- Relative lean body mass, adjusted mean change from baseline [5]: 2 (−11 to 15); %
- Relative plasma L-citrulline, adjusted mean change from baseline [5]: 66 (−13 to 145); %
- Fluid composite effect (increase urine production + reduction PS volume + reduction oral fluid intake) (5 mg vs placebo, Part A+B): 1,036 mL/day
- Absolute urine output, adjusted mean change from baseline [6]: −64 (−500 to 372); mL/day
- Relative urine output, adjusted mean change from baseline [6]: −6 (−37 to 24); %
- Urine sodium excretion (%), adjusted mean change from baseline [6]: 22 ( −75 to 119); %
- Urine sodium excretion, adjusted mean change from baseline [6]: 3 (−17 to 22); mmol/day
- Relative PS volume, adjusted mean change from baseline [7]: −28 (−51 to −4); %
- Relative oral fluid intake, adjusted mean change from baseline [7]: −15 (−25 to −5); %
- Absolute urine output, adjusted mean change from baseline [8]: 795 (195 to 1,394); mL/day
- Relative urine output, adjusted mean change from baseline [8]: 34 (−4 to 71); %
- Urine sodium excretion (%), adjusted mean change from baseline [8]: 432 ( −87 to 951); %
- Urine sodium excretion, adjusted mean change from baseline [8]: 88 (20 to 156); mmol/day
- Albumin, adjusted mean change from baseline [9]: 1.0 (−0.9 to 2.9); g/L
- Body weight, adjusted mean change from baseline [9]: 1.3 (−0.6 to 3.2); kg
- Bone mineral content, adjusted mean change from baseline [9]: 8 (−64 to 81); g
- CO2 total, adjusted mean change from baseline [9]: 1.3 (−1.1 to 3.7); mmol/L
- Creatinine, adjusted mean change from baseline [9]: −5.1 (−22.1 to 11.9); umol/L
- Fat body mass, adjusted mean change from baseline [9]: 0.33 (−1.20 to 1.85); kg
- Hematocrit, adjusted mean change from baseline [9]: 0.2 (−0.7 to 1.0); vol/fr
- Lean body mass, adjusted mean change from baseline [9]: 0.76 (−2.47 to 3.99); kg
- Plasma L-citrulline, adjusted mean change from baseline [9]: 14.0 (−2.3 to 30.3); μmol/L
- Protein, adjusted mean change from baseline [9]: −0.7 (−4.7 to 3.3); g/L
- Relative body weight, adjusted mean change from baseline [9]: 2 (−1 to 5); %
- Relative bone mineral content, adjusted mean change from baseline [9]: 0 (−3 to 3); %
- Relative fat body mass, adjusted mean change from baseline [9]: 2 (−7 to 11); %
- Relative lean body mass, adjusted mean change from baseline [9]: 2 (−6 to 9); %
- Relative plasma L-citrulline, adjusted mean change from baseline [9]: 42 (−10 to 94); %
- Urea, adjusted mean change from baseline [9]: −0.6 (−2.2 to 1.0); mmol/L
- Fluid composite effect (increase urine production + reduction PS volume + reduction oral fluid intake) (10 mg vs placebo, Part A+B): 1,630 mL/day

From US11766470B2, “Manufacture, formulation and dosing of apraglutide” (VectivBio AG, priority 2020, dated 2023)
